Measured values as given in patent EP2072513A1, “A cyano piperidinyl-phenil-oxazolidinone and use thereof” (Ferrer Internacional, S.A., priority 2007, dated 2009).
Values after ≈ are worked out from the molar mass of the structure shown. Where two headings read alike, the source gives them in different places.

What was measured:
[1] = system: S. pneumoniae ATCC 49619 PR 215; assay: MIC, standard micro dilution method (NCCLS M7-A5); format: cell-based; conditions: Streptococcus pneumoniae, ATCC49619
[2] = system: Moraxella catarrhalis HCl-78 259/339; assay: MIC, standard micro dilution method (NCCLS M7-A5); format: cell-based; conditions: HCL78259/339
[3] = system: E. faecium ATCC 10541 13; assay: MIC, standard micro dilution method (NCCLS M7-A5); format: cell-based; conditions: Enterococcus faecium, ATCC10541
[4] = system: S. aureus ATCC 43300 MR 214; assay: MIC, standard micro dilution method (NCCLS M7-A5); format: cell-based; conditions: Staphylococcus aureus, ATCC43300
[5] = system: E. faecalis ATCC 29212 53; assay: MIC, standard micro dilution method (NCCLS M7-A5); format: cell-based; conditions: Enterococcus faecalis, ATCC29212
[6] = target: T1, human MAO-B (Homo sapiens, UniProt P27338); assay: In vitro MAO-B enzymatic activity (kynuramine substrate, fluorescence); format: biochemical; conditions: membranes from SF9 cells, kynuramine 30 µM, 37° 40 min
T1 construct: purchased Gentest, BD, USA; host or cells: SF9 insect cells (membranes)
T1 sequence (P27338 1-520): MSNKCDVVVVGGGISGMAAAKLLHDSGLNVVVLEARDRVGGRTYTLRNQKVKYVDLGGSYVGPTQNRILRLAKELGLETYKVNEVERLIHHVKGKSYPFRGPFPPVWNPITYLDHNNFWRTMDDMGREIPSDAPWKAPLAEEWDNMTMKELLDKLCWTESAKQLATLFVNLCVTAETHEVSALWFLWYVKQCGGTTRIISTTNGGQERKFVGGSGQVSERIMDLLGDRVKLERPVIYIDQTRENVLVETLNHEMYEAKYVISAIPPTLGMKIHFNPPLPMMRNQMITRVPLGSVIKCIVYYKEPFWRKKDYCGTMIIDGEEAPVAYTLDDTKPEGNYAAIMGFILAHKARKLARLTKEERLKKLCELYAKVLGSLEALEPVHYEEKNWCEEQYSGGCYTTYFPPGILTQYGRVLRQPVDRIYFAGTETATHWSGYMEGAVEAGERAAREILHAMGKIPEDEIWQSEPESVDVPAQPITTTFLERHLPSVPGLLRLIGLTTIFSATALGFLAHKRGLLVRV
Description: (§1) MAO-A and MAO-B enzymatic activities were measured using membranes obtained from SF9 cells expressing either human MAO-A or human MAO-B (Gentest, BD, USA). Assays were done in blank 96-well micro titter plates using kynuramine as substrate and measuring the formation of 4-hydroxyquinoline by fluorescence at 340 nm/465 nm. Briefly, membranes with MAO-A (0.006 mg/mL protein) and MAO-B (0.015 mg/mL protein) were incubated with kynuramine, 30 µM, at 37° for 40 min in the presence of the compound in a final volume of 200 µL. Reactions were stopped by adding NaOH 2N and the reaction product, 4-hydroxyquinoline, was determined by fluorometry using a Tecan Ultra reader.

[7] = system: S. aureus clinical strain cfr methylase 432; assay: MIC, standard micro dilution method (NCCLS M7-A5); format: cell-based; conditions: Staphylococcus aureus; S. aureus clinical strain cfr methylase 432 (linezolid-resistant)
[8] = target: T2, human MAO-A (Homo sapiens, UniProt P21397); assay: In vitro MAO-A enzymatic activity (kynuramine substrate, fluorescence); format: biochemical; conditions: membranes from SF9 cells, kynuramine 30 µM, 37° 40 min
T2 construct: purchased Gentest, BD, USA; host or cells: SF9 insect cells (membranes)
T2 sequence (P21397 1-527): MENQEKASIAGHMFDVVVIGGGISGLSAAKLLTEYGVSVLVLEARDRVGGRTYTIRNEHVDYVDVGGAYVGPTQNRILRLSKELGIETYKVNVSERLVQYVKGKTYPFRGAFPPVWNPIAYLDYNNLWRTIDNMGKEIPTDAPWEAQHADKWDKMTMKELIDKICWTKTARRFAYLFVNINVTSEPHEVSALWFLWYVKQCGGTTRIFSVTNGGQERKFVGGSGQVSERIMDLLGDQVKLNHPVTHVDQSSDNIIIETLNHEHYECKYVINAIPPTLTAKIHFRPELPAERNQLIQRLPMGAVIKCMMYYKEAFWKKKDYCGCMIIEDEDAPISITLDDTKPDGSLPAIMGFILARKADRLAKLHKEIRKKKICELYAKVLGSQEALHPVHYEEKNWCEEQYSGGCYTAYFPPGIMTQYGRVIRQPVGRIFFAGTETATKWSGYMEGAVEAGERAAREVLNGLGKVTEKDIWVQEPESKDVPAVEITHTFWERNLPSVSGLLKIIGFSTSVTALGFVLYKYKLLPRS
Description: as §1

[9] = system: B. fragilis ATCC 25285 A12; assay: MIC, standard micro dilution method (NCCLS M7-A5); format: cell-based; conditions: Bacteroides fragilis, ATCC25285; B. fragilis ATCC 25285 A12, anaerobic, Brucella Blood medium
[10] = system: S. aureus ATCC 25923 MS 319; assay: MIC, standard micro dilution method (NCCLS M7-A5); format: cell-based; conditions: Staphylococcus aureus, ATCC25923
[11] = system: S. epidermidis ATCC 12228 MR 11; assay: MIC, standard micro dilution method (NCCLS M7-A5); format: cell-based; conditions: Staphylococcus epidermidis, ATCC12228
[12] = system: Moxarella, Pasteurella and Bacteroides spp.; conditions: cited from earlier work
[13] = Equilibrium solubility of polymorphic forms in solvent systems; format: physicochemical
Description: Table 1: Equilibrium solubilities of polymorphic form B. Solubility studies were also performed for polymorphic form A. In Table 2 appear the data obtained. Table 2: Equilibrium solubilities of polymorphic form A.

[14] = Suspension equilibration experiments (relative stability of polymorphic forms); format: physicochemical; conditions: at room temperature (17-30 °C)
Source text: However, a mixture of polymorphic form A and B in water slowly converted into pure polymorphic form B as well. Similarly, a suspension containing a mixture of polymorphic forms B and C in ethanol converted into polymorphic form B after some time.

SMILES | MIC [1] | MIC [2] | MIC [3] | MIC [4] | MIC [5] | Ki [6] | MIC [7] | Ki [8] | MIC [9] | MIC [10] | MIC [11] | MICs [12] | Solubility ([13]; Ethanol) | Solubility ([13]; Ethyl acetate) | Solubility ([13]; Water (Fluka 95305), pH 8.9) | Solubility ([13]; water, pH 8.7, water, thermodynamic from solid, Water (Fluka 95305), pH 8.7, read-out: Solubility) | Solubility ([13]; water, pH 8.9, water, thermodynamic from solid, Water (Fluka 95305), pH 8.9, read-out: Solubility) | relative stability of the polymorphic forms [14]
CC(=O)NC[C@H]1CN(c2ccc(N3CCC(C#N)CC3)c(F)c2)C(=O)O1 [Compound (Ia), (S)-N-{3-[4-(4-cyano-piperidin-1-yl)-3-fluoro-phenyl]-2-oxo-oxazolidin-5-ylmethyl}-acetamide] | 0.5 µg/mL (≈ 1.39 µM) | 1 µg/mL (≈ 2.77 µM) | 0.5 µg/mL (≈ 1.39 µM) | 1 µg/mL (≈ 2.77 µM) | 1 µg/mL (≈ 2.77 µM) | 2450 nM | 2 µg/mL (≈ 5.55 µM) | 1.05 µM | 1 µg/mL (≈ 2.77 µM) | 1 µg/mL (≈ 2.77 µM) | 1 µg/mL (≈ 2.77 µM) |  |  |  |  |  |  | 
CC(=O)NC[C@H]1CN(c2ccc(N3CCOCC3)c(F)c2)C(=O)O1 [Linezolid, N-[[(5S)-3-[3-fluoro-4-(4-morpholinyl)phenyl]-2-oxo-5-oxazolidinyl]methyl]acetamide, reference compound] | 1 µg/mL (≈ 2.96 µM) | 2 µg/mL (≈ 5.93 µM) | 1 µg/mL (≈ 2.96 µM) | 1 µg/mL (≈ 2.96 µM) | 0.5 µg/mL (≈ 1.48 µM) |  | 16 to 32 µg/mL (≈ 47.4 to 94.9 µM) | 6.96 µM | 2 µg/mL (≈ 5.93 µM) | 1 µg/mL (≈ 2.96 µM) | 1 µg/mL (≈ 2.96 µM) | 2 to 8 µg/mL |  |  |  |  |  | 
CC(=O)NC[C@H]1CN(c2ccc(N3CCC(C#N)CC3)c(F)c2)C(=O)O1 [polymorphic form A, (S)-N-{3-[4-(4-cyano-piperidin-1-yl)-3-fluoro-phenyl]-2-oxo-oxazolidin-5-ylmethyl}-acetamide] |  |  |  |  |  |  |  |  |  |  |  |  | 6.3 to 7.3 mg/mL | 11.8 to 15.4 mg/mL | 0.39 mg/mL (≈ 1080 µM) | 0.4 mg/mL (≈ 1110 µM) |  | 
CC(=O)NC[C@H]1CN(c2ccc(N3CCC(C#N)CC3)c(F)c2)C(=O)O1 [polymorphic form B, (S)-N-{3-[4-(4-cyano-piperidin-1-yl)-3-fluoro-phenyl]-2-oxo-oxazolidin-5-ylmethyl}-acetamide] |  |  |  |  |  |  |  |  |  |  |  |  | 2.6 mg/mL (≈ 7210 µM) | 2.9 mg/mL (≈ 8050 µM) |  |  | 0.24 mg/mL (≈ 666 µM) | the most stable one
